Reference: patent US9220269B2, “Use of 6-substituted 9-halogenalkyl purines for regulation of growth and development of whole plants, plant cells and plant organs; novel 6-substituted 9-halogenalkyl purines” (UNIVERZITA PALACKEHO V OLOMOUCI, priority 2010, dated 2015)

Experiments:
[1] = tested on: cytokinin-dependent tobacco callus Nicotiana tabacum L. cv. Wisconsin 38; assay: cytokinin-dependent tobacco callus bioassay (plant cell division); type: cell-based; conditions: for activity (%) [10^−5 mol. l^−1 iP = 100%] / activity (%) [10^−6 mol. l^−1 Kin = 100%]: at the concentration with highest activity; for activity (%) [10^−5 mol. l^−1 iP = 100%]: relative to 10^−5 M iP; for effect on callus growth (cell proliferation) in high concentrations: concentrations exceeding 10 μM, up to 100 μM, FIG. 1; for activity (%) [10^−6 mol. l^−1 Kin = 100%]: relative to 10^−6 M Kin; for concentration with highest activity: growth of tobacco callus, fresh weight after four weeks
Experimental: Stimulatory effect of newly prepared derivatives was tested using cytokinin-dependent tobacco callus. The cytokinin-dependent tobacco callus Nicotiana tabacum L. cv. Wisconsin 38 was maintained at 25° C. in darkness on modified MS medium, containing per 1 liter: 4 μmol of nicotinic acid, 2.4 μmol of pyridoxine hydrochloroide, 1.2 μmol of thiamine, 26.6 μmol of glycine, 1.37 μmol of glutamine, 1.8 μmol of myo-inositol, 30 g of sucrose, 8 g of agar, 5.37 μmol of NAA and 0.5 μmol of the compound tested. Subcultivation was carried out every three weeks. Fourteen days before the bioassay, the callus tissue was transferred to the media without the compound tested. The biological activity was determined from the increase of the fresh callus weight after four weeks of cultivation. Six replicates were prepared for each concentration of the compound tested and the entire test was repeated twice. […] The compounds to be tested were dissolved in dimethylsulfoxide (DMSO) and the solution brought up to 10^−3 M with distilled water. […] From the obtained data, the concentration with the highest activity was selected for each compound tested. Relative activity of the compound at this concentration was calculated (Table 2). The activity obtained for 10^−6 M of the N9-unsubstituted parent cytokinins Kin and 10^−5 M iP, respectively, was postulated as 100% biological activity. […] For comparison, compounds bearing halogenbutyl substituent in position 9 were prepared and tested.
Cytokinins are known to have stimulatory effects on cell proliferation in their optimal concentrations, however typically in the concentrations exceeding 10 μM their effect on cell division turns into inhibitory (Holub et al., Plant Growth Regul. 26, 109-115, 1998). Therefore the effect of the high concentrations of the newly prepared derivatives was tested using cytokinin-dependent tobacco callus described in Example 6. The novel compounds 1, 2 and 4 were tested in high concentrations (1-100 μM) and the activities were compared with activities of their N9-unsubstituted parent cytokinins.

[2] = tested on: Amaranthus caudatus var. atropurpurea explants (cotyledons and hypocotyl); assay: Amaranthus bioassay (betacyanin formation); conditions: for activity (%) [10^−5 mol. l^−1 iP = 100%]: at the concentration with highest activity; for concentration with highest activity: betacyanin formation, 48 h in darkness
Experimental: The standard Amaranthus bioassay with several modifications was used to study cytokinin activity of the novel compounds. The seeds of Amaranthus caudatus var. atropurpurea were surface-sterilised in 10% (w/v) N-chlorobenzenesulfonamide for 10 min and washed 5 times with deionized water. They were placed in 14 cm Petri dishes containing paper tissues saturated with deionized water. After 72 h of cultivation at 25° C. in darkness, the roots of the seedlings were cut off. The explants, consisting of two cotyledons and hypocotyl, were placed in 5 cm Petri dishes onto two layers of filter paper soaked with 1 ml of the incubation medium containing 10 μmol of Na2HPO4—KH2PO4, pH 6.8, 5 μmol of tyrosine and the cytokinin to be tested. There were 20 explants per dish. The procedure was carried out under a green safe light in a darkroom. After 48 h of incubation at 25° C. in darkness, betacyanin was extracted by freezing the explants in 4 ml […] acetic acid. The concentration of betacyanin was determined from the absorbances at 537 nm and 620 nm as follows: ΔA=A537 nm−A620 nm. The values ΔA were plotted against the concentration tested, are means of five replicates and the entire test was repeated twice. […] The compounds to be tested were dissolved in dimethylsulfoxide (DMSO) and the solution brought up to 10^−3 M with distilled water. […] The activity obtained for 10^−5 M iP was postulated as 100%.

[3] = tested on: detached leaf segments of Triticum aestivum cv. Hereward; assay: senescence bioassay on detached wheat leaf segments in light conditions (chlorophyll retention); conditions: for concentration with highest activity: constant light 100 μmol·m^−2·s^−1, 22° C.; for activity (%) [10^−4 mol. l^−1 Kin = 100%]: light, at the concentration with highest activity
Experimental: (§1) Seeds of winter wheat, Triticum aestivum cv. Hereward, were washed under running water for 24 hours and then sown on vermiculite soaked with Knop's solution. They were placed in the growth chamber at 25° C. with a 16/8 h light period at 50 μmol·m^−2·s^−1. After 7 days, the first leaf was fully developed and the second leaf had started to grow. A tip section of the first leaf, approximately 35 mm long, was removed from 5 seedlings and trimmed slightly to a combined weight of 100 mg. The basal ends of the five leaf tips were placed in the wells of a microtiter polystyrene plate containing 150 μL of the tested derivative solution each. The entire plate was inserted into a plastic box lined with paper tissues soaked in distilled water to prevent leaf sections from drying out. After 96 h incubation in the dark at 25° C., the leaves were removed and chlorophyll extracted by heating at 80° C. for 10 min in 5 mL of 80% ethanol (v/v). The sample volume was then restored to 5 mL by the addition of 80% ethanol (v/v). The absorbance of the extract was recorded at 665 nm. In addition, chlorophyll extracts from fresh leaves and leaf tips incubated in deionised water were measured. The results are means of five replicates and the entire test was repeated twice. […] The compounds to be tested were dissolved in dimethylsulfoxide (DMSO) and the solution brought up to 10^−3M with distilled water. […] The activity obtained for 10^−4 M Kin was postulated as 100%.
The ability of the novel compounds to retard chlorophyll degradation in detached wheat leaves was tested also in the light conditions. The experiment was performed as described in Example 7 with modifications as follows—the incubation of the leaves with the compounds was done in the constant light (100 μmol·m^−2·s^−1) at 22° C.

[4] = tested on: Zea mays cv. CELLUX seedlings; assay: root growth and development of maize seedlings in hydroponics; type: in vivo; conditions: FIG. 3
Experimental: To investigate in vivo effect of the new derivatives on the root growth and development, maize seeds (Zea mays cv. CELLUX, Morseva, Czech Republic) were imbibed in tap water and germinated in dark on a wetted filter paper. After 2 days, the germinated seedlings were transferred to aerated hydroponic tanks filled with Hoagland's nutrient solution (fifteens per one liter of Hoagland solution). The plants were grown in a chamber with 16 hrs light (250 μm-2 s-1) at 27° C. and 8 hrs dark period at 20° C. The nutrient solution was supplemented with 5 μM and 10 μM concentration of 6-furfurylamino-9-(2-chloroethyl)purine or 5 μM cytokinin kinetin (Kin). All solutions used for cytokinin treatment including negative control contained DMSO in final concentration of 0.01%.

[5] = tested on: detached leaf segments of Triticum aestivum cv. Hereward; assay: senescence bioassay on detached wheat leaf segments in dark conditions (chlorophyll retention); conditions: for concentration with highest activity: 96 h, 25° C., chlorophyll A665; for activity (%) [10^−4 mol. l^−1 Kin = 100%]: at the concentration with highest activity
Experimental: as §1

[6] = tested on: VP14 gene; assay: expression of VP14 stress gene in intact maize plants (RT-PCR); type: in vivo, Zea mays; conditions: 5 μM; for Relative amount of transcripts, leaf / Relative amount of transcripts, root: 3 days, related to untreated control = 1; for effect on VP14 expression / stress response: in words
Experimental: Abscisic acid has a direct effect on up-regulation of genes involved in stress responses (Tan et al., 1997, Proc Natl Acad Sci USA, 94, 12235-40). 5-days-old maize seedlings were carefully transferred from substrate to nutrient solution supplemented with tested compound in 5 μM concentration and were cultivated for another 3 days. Transcript copy number of VP14 gene was determined in roots and leaves of treated plants independently by method of reverse transcription polymerase chain reaction.

[7] = tested on: membrane lipid peroxidation in detached leaves of Triticum aestivum cv. Hereward; assay: membrane lipid peroxidation (MDA, TBA method) in detached wheat leaves during dark senescence
Experimental: A typical symptom associated with senescence as a direct consequence of increased reactive oxygen species is lipid peroxidation. Therefore the levels of MDA, a decomposition product of lipid peroxidation, were measured in detached wheat leaves that were exposed to the prepared novel derivatives and kinetin for four days in the dark as described in Example 7. MDA levels were measured using a thiobarbituric acid (TBA) method. In detail, 100 mg of fresh plant material was homogenized by high speed shaking in a ball mill (MM301, Retsch, Germany) with 1 mL of 80% methanol. The crude extract was centrifuged at 10,000×g for 5 min, and 100 μL aliquot of supernatant was vortexed with 100 μL of 0.5% (w/v) TBA containing 0.1% (w/v) trichloroacetic acid, and the resulting solution was then incubated for 30 min at 95° C. The samples were quickly cooled on ice and recentrifuged for 5 min at 1000×g. The absorbance of supernatant was measured at 532 nm with background subtraction at 600 nm and the amount of MDA-TBA complex was calculated from the coefficient of absorbance 155 mM^−1 cm^−1.

Row | Structure (SMILES) | effect on callus growth (cell proliferation) in high concentrations [1] | activity (%) [10^−6 mol. l^−1 Kin = 100%] [1] | concentration with highest activity [3] | activity (%) [10^−4 mol. l^−1 Kin = 100%] [3] | concentration with highest activity [5] | activity (%) [10^−4 mol. l^−1 Kin = 100%] [5] | also measured
1 | CC(C)=CCNc1ncnc2nc[nH]c12 [6-(3-methylbut-2-en-1-yl)aminopurine, reference compound] | inhibited strongly the callus growth | – | – | – | – | – | activity (%) [10^−5 mol. l^−1 iP = 100%] [1]: 100%; activity (%) [10^−5 mol. l^−1 iP = 100%] [2]: 100%; concentration with highest activity [2]: 10^−5 mol. l^−1
2 | c1coc(CNc2ncnc3nc[nH]c23)c1 [6-furfurylaminopurine (Kin), 6-furfurylaminopurine, reference compound] | inhibited strongly the callus growth | 100% | 10^−4 mol. l^−1 | 100% | 10^−4 mol. l^−1 | 100% | root and shoot phenotype of maize plants ([4]; 5 μM in nutrient solution): dramatic thickening and shortening of primary root with no lateral root formation; Relative amount of transcripts, leaf [6]: 16.3 (±4.0); Relative amount of transcripts, root [6]: 3.4 (±0.8); effect on VP14 expression / stress response [6]: significantly increases VP14 expression in both root and leaves of maize
3 | ClCCCCn1cnc2c(NCc3ccco3)ncnc21 [6-furfurylamino-9-(4-chlorobutyl)purine, reference compound] | – | 62 (±7) % | 10^−4 mol. l^−1 | 119 (±6) % | 10^−4 mol. l^−1 | 72 (±13) % | –
4 | BrCCn1cnc2c(NCc3ccco3)ncnc21 [Compound 2, 6-furfurylamino-9-(2-bromoethyl)purine] | – | 110 (±3) % | 10^−4 mol. l^−1 | 121 (±8) % | 10^−4 mol. l^−1 | 102 (±3) % | –
5 | CC(C)=CCNc1ncnc2c1ncn2CCBr [Compound 3, 6-[(3-methylbut-2-en-1-yl)amino]-9-(2-bromoethyl)purine] | – | – | – | – | – | – | activity (%) [10^−5 mol. l^−1 iP = 100%] [1]: 103 (±4) %; activity (%) [10^−5 mol. l^−1 iP = 100%] [2]: 116 (±9) %; concentration with highest activity [2]: 10^−4 mol. l^−1
6 | ClCCn1cnc2c(NCc3ccco3)ncnc21 [Compound 1, 6-furfurylamino-9-(2-chloroethyl)purine] | still kept their stimulatory effect | 120 (±6) % | 10^−5 mol. l^−1 | 116 (±7) % | 10^−4 mol. l^−1 | 120 (±15) % | root and shoot phenotype of maize plants ([4]; 5 μM in nutrient solution): almost identical to DMSO treated negative control; root and shoot phenotype of maize plants ([4]; 10 μM in nutrient solution): only slightly reduced length of primary and lateral roots; Relative amount of transcripts, leaf [6]: 1.1 (±0.3); Relative amount of transcripts, root [6]: 0.4 (±0.1); effect on VP14 expression / stress response [6]: does not induce any stress response; level of membrane lipid peroxidation reduced to ([7]; dark senescence, compared to untreated control): 67%; MDA ([7]; detached wheat leaves, four days in the dark, untreated control 18.9 (±2.2)): 12.8 (±1.0) nmol/g FW
7 | Oc1cccc(CNc2ncnc3c2ncn3CCCl)c1 [Compound 47] | – | 111 (±2) % | – | – | 10^−4 mol. l^−1 | 111 (±9) % | concentration with highest activity [1]: 10^−5 mol. l^−1
8 | C/C(=C\C(C)Nc1ncnc2c1ncn2CCCl)CO (stereo not drawn) [Compound 136, 6-(E)-(4-hydroxy-1,3-dimethylbut-2-en-1-ylamino)-9-(2-chloroethyl)purine] | – | 115 (±7) % | – | – | 10^−4 mol. l^−1 | 114 (±4) % | –
9 | BrCCCCn1cnc2c(NCc3ccco3)ncnc21 [6-furfurylamino-9-(4-bromobutyl)purine, reference compound] | – | 45 (±8) % | 10^−4 mol. l^−1 | 60 (±16) % | 10^−4 mol. l^−1 | 1.2 (±2) % | –
10 | CC(C)=CCNc1ncnc2c1ncn2CCCl [Compound 4, 6-[(3-methylbut-2-en-1-yl)amino]-9-(2-chloroethyl)purine] | still kept their stimulatory effect | – | – | – | – | – | activity (%) [10^−5 mol. l^−1 iP = 100%] [1]: 112 (±7) %; activity (%) [10^−5 mol. l^−1 iP = 100%] [2]: 128 (±11) %; concentration with highest activity [2]: 10^−4 mol. l^−1
11 | COc1cccc(CNc2ncnc3c2ncn3CCCl)c1 [Compound 38] | – | 106 (±5) % | – | – | 10^−4 mol. l^−1 | 116 (±7) % | concentration with highest activity [1]: 10^−5 mol. l^−1
